# Experimental data reported in patent publication US12498382B2, “Biomarkers for vitiligo” (INCYTE CORPORATION, priority 2019, dated 2025).
# Tested on: HaCaT cells
# Test: Concentrations of inflammatory mediators produced by HaCaT cells stimulated with TNFα and IFNγ in presence/absence of JAK inhibitors (ProCarta)
# Type: cell-based, human
# Method: After 48 hours, cell culture media was removed from 24 well plates and replaced with 250 uL of media containing serial diluted drug, then incubated for 15 minutes at 37° C./5% CO2. […] The final concentration of Recombinant Human Interferon gamma and Recombinant Human Tumor Necrosis Factor alpha was 25 ng/mL of each cytokine. Cytokine stimulation added to wells containing drug brought the final concentrations for each drug treatment to 25 nM, 50 nM, 100 nM, and 200 nM. Treated plates were mixed by gentle agitation for 30 seconds then incubated for 24 hours at 37° C./5% CO2. At the end of the 24 hour incubation media was immediately removed from each plate.
# Media was incubated with antibody conjugated beads designed to bind to the epitopes of specific target proteins and identify the bound protein through the bead's distinctive spectral pattern. Biotinylated detection antibodies, designed to bind to different epitopes of the same target proteins, and Streptavidin-PE are added to assay plates to quantify the amount of the target proteins. Assay plates were read on the Luminex 200 and data were expressed as Net Median Fluorescence Intensity. […] The concentration of each protein was extrapolated from the antigen standard curve and concentrations were expressed as pg/mL (Table 15).
# [1] = TNFα+IFNγ 25 ng/mL each, drug conc. 1st of 4 rows (cell not shown; prob. 25 nM)
# [2] = TNFα+IFNγ 25 ng/mL each, drug conc. 2nd of 4 rows (cell not shown; prob. 50 nM)
# [3] = TNFα+IFNγ 25 ng/mL each, drug conc. 3rd of 4 rows (cell not shown; prob. 100 nM)
# [4] = TNFα+IFNγ 25 ng/mL each, drug conc. 4th of 4 rows (cell not shown; prob. 200 nM)
# [5] = drug present, concentration not given
compound,measurement,setting,value
"Cc1n[nH]c(C)c1-c1cnn(C2(CC#N)CN(c3cc(F)c(C(=O)N[C@@H](C)C(F)(F)F)cc3F)C2)c1 [Cpd C, 4-[3-(Cyanomethyl)-3-(3′,5′-dimethyl-1H,1′H-4,4′-bipyrazol-1-yl)azetidin-1-yl]-2,5-difluoro-N-[(1S)-2,2,2-trifluoro-1-methylethyl]benzamide]",IFN gamma concentration,[1],27765.18 ± 4653.71 pg/mL
same,IL1RA concentration,[1],6175.66 ± 277.7 pg/mL
same,IL1 alpha concentration,[1],7.74 ± 0.36 pg/mL
same,IL1 beta concentration,[1],8.88 ± 0.35 pg/mL
same,IL2 concentration,[1],31.39 ± 1.44 pg/mL
same,IL4 concentration,[1],8.31 ± 2.19 pg/mL
same,IL5 concentration,[1],27.03 ± 1.35 pg/mL
same,IL6 concentration,[1],774.87 ± 31.09 pg/mL
same,IL7 concentration,[1],2.18 ± 0.15 pg/mL
same,IL8 concentration,[1],2879.27 ± 117.07 pg/mL
same,IL9 concentration,[1],3.37 ± 0.33 pg/mL
same,IL10 concentration,[1],0.75 ± 0.05 pg/mL
same,IL12p70 concentration,[1],1.97 ± 0.22 pg/mL
same,IL13 concentration,[1],2.93 ± 0.41 pg/mL
same,IL15 concentration,[1],3.97 ± 0.71 pg/mL
same,IL17A concentration,[1],4.27 ± 0.42 pg/mL
same,IL18 concentration,[1],163.63 ± 3.29 pg/mL
same,IL21 concentration,[1],2.71 ± 0.18 pg/mL
same,IL22 concentration,[1],7.15 ± 1.16 pg/mL
same,IL23 concentration,[1],7.43 ± 0 pg/mL
same,IL27 concentration,[1],8.88 ± 1.64 pg/mL
same,IL31 concentration,[1],3.52 ± 0.53 pg/mL
same,IP-10/CXCL10 concentration,[1],3999.9 ± 370.53 pg/mL
same,LIF concentration,[1],67.72 ± 2.04 pg/mL
same,MCP1 concentration,[1],15200 ± 0 pg/mL
same,MIP1 alpha concentration,[1],101.71 ± 3.84 pg/mL
same,MIP1 beta concentration,[1],318.92 ± 6.03 pg/mL
same,PDGF-BB concentration,[1],4.93 ± 0.21 pg/mL
same,PIGF-1 concentration,[1],58.04 ± 2.17 pg/mL
same,RANTES concentration,[1],216.88 ± 13.45 pg/mL
same,SCF concentration,[1],4.34 ± 0.19 pg/mL
same,SDF-1 alpha concentration,[1],3503.89 ± 90.15 pg/mL
same,TNF alpha concentration,[1],11212.78 ± 1168.53 pg/mL
same,TNF beta concentration,[1],5.68 ± 1.4 pg/mL
same,VEGF-A concentration,[1],1261.47 ± 37.95 pg/mL
same,VEGF-D concentration,[1],8.6 ± 0.74 pg/mL
same,IFN gamma concentration,[2],23531.94 ± 2644.35 pg/mL
same,IL1RA concentration,[2],6065 ± 325.72 pg/mL
same,IL1 alpha concentration,[2],7.01 ± 0.39 pg/mL
same,IL1 beta concentration,[2],8.72 ± 0.47 pg/mL
same,IL2 concentration,[2],29.87 ± 1.38 pg/mL
same,IL4 concentration,[2],5.24 ± 0.99 pg/mL
same,IL5 concentration,[2],26.49 ± 1.58 pg/mL
same,IL6 concentration,[2],710.89 ± 36.7 pg/mL
same,IL7 concentration,[2],2.02 ± 0.07 pg/mL
same,IL8 concentration,[2],2869.74 ± 167.65 pg/mL
same,IL9 concentration,[2],3.7 ± 0^ pg/mL
same,IL10 concentration,[2],0.74 ± 0.06 pg/mL
same,IL12p70 concentration,[2],1.72 ± 0.2 pg/mL
same,IL13 concentration,[2],2.24 ± 0.28 pg/mL
same,IL15 concentration,[2],2.29 ± 0.44 pg/mL
same,IL17A concentration,[2],3.48 ± 0.39 pg/mL
same,IL18 concentration,[2],156.41 ± 4.19 pg/mL
same,IL21 concentration,[2],2.88 ± 0 pg/mL
same,IL22 concentration,[2],8.03 ± 0.87 pg/mL
same,IL23 concentration,[2],7.43 ± 0 pg/mL
same,IL27 concentration,[2],5.98 ± 1.08 pg/mL
same,IL31 concentration,[2],3.36 ± 0.27 pg/mL
same,IP-10/CXCL10 concentration,[2],3665.2 ± 277.11 pg/mL
same,LIF concentration,[2],67.64 ± 3.17 pg/mL
same,MCP1 concentration,[2],33175.72 ± 17975.72 pg/mL
same,MIP1 alpha concentration,[2],104.54 ± 6.56 pg/mL
same,MIP1 beta concentration,[2],318.37 ± 9.88 pg/mL
same,PDGF-BB concentration,[2],5.22 ± 0.25 pg/mL
same,PIGF-1 concentration,[2],55.59 ± 2.74 pg/mL
same,RANTES concentration,[2],201.93 ± 15.44 pg/mL
same,SCF concentration,[2],4.25 ± 0.22 pg/mL
same,SDF-1 alpha concentration,[2],3471.01 ± 141.19 pg/mL
same,TNF alpha concentration,[2],10367.04 ± 1016.28 pg/mL
same,TNF beta concentration,[2],5.54 ± 0.56 pg/mL
same,VEGF-A concentration,[2],1268.91 ± 59.05 pg/mL
same,VEGF-D concentration,[2],8.44 ± 0.66 pg/mL
same,IFN gamma concentration,[3],23113.79 ± 2086.62 pg/mL
same,IL1RA concentration,[3],6167.55 ± 367.54 pg/mL
same,IL1 alpha concentration,[3],7.27 ± 0.47 pg/mL
same,IL1 beta concentration,[3],8.55 ± 0.34 pg/mL
same,IL2 concentration,[3],30.51 ± 1.23 pg/mL
same,IL4 concentration,[3],6.26 ± 1.35 pg/mL
same,IL5 concentration,[3],28.64 ± 1.4 pg/mL
same,IL6 concentration,[3],690.4 ± 35.25 pg/mL
same,IL7 concentration,[3],2.04 ± 0.11 pg/mL
same,IL8 concentration,[3],3035.52 ± 206.85 pg/mL
same,IL9 concentration,[3],4.16 ± 0.46 pg/mL
same,IL10 concentration,[3],0.75 ± 0.07 pg/mL
same,IL12p70 concentration,[3],1.75 ± 0.23 pg/mL
same,IL13 concentration,[3],2.58 ± 0.36 pg/mL
same,IL15 concentration,[3],2.42 ± 0.54 pg/mL
same,IL17A concentration,[3],3.77 ± 0.42 pg/mL
same,IL18 concentration,[3],162.12 ± 5.14 pg/mL
same,IL21 concentration,[3],2.6 ± 0.28 pg/mL
same,IL22 concentration,[3],7.31 ± 1.07 pg/mL
same,IL23 concentration,[3],6.7 ± 0.73 pg/mL
same,IL27 concentration,[3],5.7 ± 1.04 pg/mL
same,IL31 concentration,[3],2.95 ± 0.38 pg/mL
same,IP-10/CXCL10 concentration,[3],3860.41 ± 323.05 pg/mL
same,LIF concentration,[3],73.12 ± 3.62 pg/mL
same,MCP1 concentration,[3],26334.64 ± 11134.64 pg/mL
same,MIP1 alpha concentration,[3],96.4 ± 4.18 pg/mL
same,MIP1 beta concentration,[3],324.42 ± 8.52 pg/mL
same,PDGF-BB concentration,[3],5.57 ± 0.23 pg/mL
same,PIGF-1 concentration,[3],58.69 ± 3.37 pg/mL
same,RANTES concentration,[3],207.79 ± 17.38 pg/mL
same,SCF concentration,[3],4.59 ± 0.25 pg/mL
same,SDF-1 alpha concentration,[3],3521.98 ± 154.06 pg/mL
same,TNF alpha concentration,[3],10632.61 ± 795.65 pg/mL
same,TNF beta concentration,[3],4.6 ± 0.46 pg/mL
same,VEGF-A concentration,[3],1335.99 ± 63.65 pg/mL
same,VEGF-D concentration,[3],9.25 ± 0.7 pg/mL
same,IFN gamma concentration,[4],25179.01 ± 3591.71 pg/mL
same,IL1RA concentration,[4],5756.59 ± 328.24 pg/mL
same,IL1 alpha concentration,[4],6.45 ± 0.38 pg/mL
same,IL1 beta concentration,[4],8.71 ± 0.5 pg/mL
same,IL2 concentration,[4],30.68 ± 1.62 pg/mL
same,IL4 concentration,[4],7.07 ± 0.88 pg/mL
same,IL5 concentration,[4],27.1 ± 1.76 pg/mL
same,IL7 concentration,[4],1.91 ± 0.11 pg/mL
same,IL8 concentration,[4],2874.26 ± 169.59 pg/mL
same,IL9 concentration,[4],3.66 ± 0.04 pg/mL
same,IL10 concentration,[4],0.84 ± 0.08 pg/mL
same,IL12p70 concentration,[4],1.79 ± 0.23 pg/mL
same,IL13 concentration,[4],2.12 ± 0.3 pg/mL
same,IL15 concentration,[4],2.32 ± 0.44 pg/mL
same,IL17A concentration,[4],4 ± 0.34 pg/mL
same,IL18 concentration,[4],157.36 ± 4.56 pg/mL
same,IL21 concentration,[4],2.45 ± 0.29 pg/mL
same,IL22 concentration,[4],8.24 ± 0.53 pg/mL
same,IL23 concentration,[4],6.95 ± 0.48 pg/mL
same,IL27 concentration,[4],6.59 ± 0.99 pg/mL
same,IL31 concentration,[4],3.34 ± 0.69 pg/mL
same,IP-10/CXCL10 concentration,[4],3835.78 ± 304.58 pg/mL
same,LIF concentration,[4],70.66 ± 3.22 pg/mL
same,MCP1 concentration,[4],19811.45 ± 4611.45 pg/mL
same,MIP1 alpha concentration,[4],98.72 ± 3.87 pg/mL
same,MIP1 beta concentration,[4],318.74 ± 8.72 pg/mL
same,PDGF-BB concentration,[4],5.52 ± 0.27 pg/mL
same,PIGF-1 concentration,[4],55.71 ± 3.28 pg/mL
same,RANTES concentration,[4],189.62 ± 13.78 pg/mL
same,SCF concentration,[4],4.23 ± 0.15 pg/mL
same,SDF-1 alpha concentration,[4],3436.48 ± 134.91 pg/mL
same,TNF alpha concentration,[4],10619.05 ± 1276.72 pg/mL
same,TNF beta concentration,[4],3.78 ± 0.57 pg/mL
same,VEGF-A concentration,[4],1262.36 ± 57.42 pg/mL
same,VEGF-D concentration,[4],8.82 ± 0.7 pg/mL
same,IL1RA concentration,[5],488.84 ± 49.85 pg/mL
same,IL1 alpha concentration,[5],0.3 ± 0.05 pg/mL
same,IL1 beta concentration,[5],0.93 ± 0.17 pg/mL
same,IL2 concentration,[5],2.65 ± 0.28 pg/mL
same,IL4 concentration,[5],4.89 ± 1.18 pg/mL
same,IL5 concentration,[5],3.04 ± 0.41 pg/mL
same,IL6 concentration,[5],28.49 ± 2.89 pg/mL
same,IL7 concentration,[5],3.35 ± 0.18 pg/mL
same,IL8 concentration,[5],269.53 ± 10.35 pg/mL
same,IL9 concentration,[5],3.65 ± 0.2 pg/mL
same,IL10 concentration,[5],0.4 ± 0.11 pg/mL
same,IL12p70 concentration,[5],1.52 ± 0.29 pg/mL
same,IL13 concentration,[5],1.08 ± 0.13 pg/mL
same,IL15 concentration,[5],1.98 ± 0.49 pg/mL
same,IL17A concentration,[5],1.39 ± 0.22 pg/mL
same,IL18 concentration,[5],5.89 ± 0.58 pg/mL
same,IL21 concentration,[5],2.33 ± 0.29 pg/mL
same,IL22 concentration,[5],7.16 ± 1.16 pg/mL
same,IL23 concentration,[5],6.54 ± 1 pg/mL
same,IL27 concentration,[5],9.17 ± 2.36 pg/mL
same,IL31 concentration,[5],3.28 ± 0.31 pg/mL
same,IP-10/CXCL10 concentration,[5],19.83 ± 0.4 pg/mL
same,LIF concentration,[5],24.24 ± 1.14 pg/mL
same,MCP1 concentration,[5],1158.23 ± 47.13 pg/mL
same,MIP1 alpha concentration,[5],2.9 ± 0.21 pg/mL
same,MIP1 beta concentration,[5],117.97 ± 3.75 pg/mL
same,PDGF-BB concentration,[5],2.19 ± 0.17 pg/mL
same,PIGF-1 concentration,[5],21.19 ± 1.05 pg/mL
same,RANTES concentration,[5],8.61 ± 0.52 pg/mL
same,SCF concentration,[5],2 ± 0.1 pg/mL
same,SDF-1 alpha concentration,[5],1028.82 ± 43.21 pg/mL
same,TNF alpha concentration,[5],2.82 ± 0.72 pg/mL
same,TNF beta concentration,[5],4.5 ± 0.5 pg/mL
same,VEGF-A concentration,[5],609.51 ± 15.83 pg/mL
same,VEGF-D concentration,[5],3.63 ± 0.6 pg/mL
